The source of these data is US9125898B2, “Acetam derivatives for pain relief” (NEUROTUNE AG, priority 2008, dated 2015).

The test system of test [1] is ddC induced mechanical allodynia in rats. The test is described as follows: ddC induced mechanical allodynia in rats, von Frey test. In kind it is in vivo, rat. The following applies: FIG. 4; 15 min after drug administration. How it is done: Painful peripheral NP may be induced in rats by i.v. administration of 2′,3′-dideoxycytidine (ddC) mimicking what is seen in AIDS patients undergoing antiviral therapy. The ddC test represents a useful and predictive model to study molecules with analgesic potential in human neuropathic states.
Adult male SD rats (Harlan, Italy, 150-200 g weight) were used. Animals were treated with 25 mg/kg i.v. bolus of 2′,3′-dideoxycytidine, an inhibitor of nucleoside reverse transcriptase used for AIDS therapy that in rodents induces a peripheral neuropathy resulting in allodynic responses to mechanical stimuli. Symptoms severity peaks between 5 to 10 days after administration (Joseph, E. K. et al. —Pain 107 (2004) 147-158). Ten days after administration of ddC, as an intravenous (i.v.) bolus, test substances were administered every day, once a day or b.i.d for 4 weeks. Dosing was withheld in those days in which allodynic tests were performed, and lasted for 24 h and 48 h.
NT-11624 was dissolved in distilled water and was orally by gavage administered as follows • Group 1: 100 mg/kg b.i.d. for 14 days, followed by 50 mg/kg b.i.d. for 7 days, then 50 mg/kg u.i.d. for 7 days. • Group 2: 50 mg/kg b.i.d. for 28 days.
Pregabalin (3B Pharmachem (Wuhan) International Co.) was dissolved in 1% CMC (carboxymethylcellulose) and orally administered at the dose of 15 mg/kg b.i.d. for 28 days.
Thresholds for mechanical allodynia were measured using an electronic Von Frey apparatus. […] After 4 week drug administration, additional tests were performed beyond the 60 min point, at 4, 8, 24, 48 and 56 h. Results represent the mean (±S.E.M.) of mechanical thresholds expressed in grams.
Drugs: The following substance was used: NT-11624 (batch No. 0000104580 supplied by Brane Discovery Srl, Gerenzano Italy). NT-11624 was dissolved in distilled water and given p.o. every day, except in those days in which allodynic tests were performed and lasted for 24 h, 48 h and 56 h (i.e. days 1, 3, 7, 10, 14, 21, 28).
The following groups of treatment were utilized: • NT-11624 (Group 1): rats received 100 mg/kg b.i.d. of NT-11624 for 14 days, then 50 mg/kg b.i.d. for 7 days, then 50 mg/kg u.i.d. for 7 days. • NT-11624 (Group 2): rats received 50 mg/kg b.i.d. for 28 days • Pregabalin: rats received 15 mg/kg b.i.d. for 28 days
Administration volume was 10 ml/kg body weight. Pregabalin [3B Pharmachem (Wuhan), International Co] was dissolved in CMC 1% (carboxymethylcellulose, Sigma-Aldrich, Italy), and orally given as described before. Control rats received vehicle only.
ddC intravenous injection: ddC was dissolved in saline to a concentration of 25 mg/kg (1 ml) and was administered i.v. into the rat tail vein. Control rats were treated with an equal volume of saline i.v.
The administration of ddC produces dose-dependent mechanical hypersensitivity and allodynia peaking in severity between 5-10 days after the administration. The test is usually performed at day 10.
Von Frey test: Each animal was placed in a chamber with a mesh metal floor covered by a plastic dome that enabled the animal to walk freely, but not to jump. The mechanical stimulus was then delivered in the mid-plantar skin of left hind paw using an electronic Von Frey apparatus (37400 Dynamic Plantar Aesthesiometer; Ugo Basile, Comerio, Varese, Italy). The cut-off was fixed at 50 g, while the increasing force rate (ramp duration) was settled at 20 sec. […] At day 28, additional tests were performed at 4, 8, 24, 48 and 56 h after drug administration. Results represent the mean (±S.E.M.) of mechanical thresholds expressed as grams.

Test [2] relates to oxaliplatin induced hyperalgesia in the rat. In words: Oxaliplatin induced hyperalgesia in the rat paw-pressure test. In kind it is in vivo. The following applies: for Paw pressure, pre-test before all treatments: baseline, drug 100 mg/kg p.o.; for Paw pressure, 1a week - 30 min / Paw pressure, 2a week - 30 min / Paw pressure, 3a week - 30 min / Paw pressure, 3a week - 4 h / Paw pressure, 3a week - 8 h / Paw pressure, 3a week - 24 h: drug 100 mg/kg p.o. once daily. How it is done:
Drugs: The following substance was used: NT-13317 (batch No. RR0011-184A1 supplied by Brane Discovery Srl, Gerenzano Italy). NT-13317 was dissolved in DMSO 20%, 10% glucose and administered at the dose of 10, 30 and 100 mg/kg p.o.
Gabapentin (Sigma) was dissolved in 1% CMC (carboxymethylcellulose-Sigma) and orally administered at 100 mg/kg, and dissolved in saline and i.v. administered at 3 mg/kg.
Oxaliplatin model: A peripheral neuropathy was induced in adult rats, by administration of oxaliplatin (Tocris), at 2.4 mg/kg i.p. in saline once a day on days 1, 2, 3, 4, 5, 8, 9, 10, 11, 12, 15, 16, 17, 18, 19 (cumulative dose 36 mg/kg) according to [1].
In the first experiment NT-13317 and gabapentin were given chronically at the dose 100 mg/kg po starting 3 days before oxaliplatin and every day for 5 days/week for 3 weeks.
A dose-response experiment was then performed with NT-13317 (10, 30 and 100 mg/kg po) using the same treatment schedule.
Paw pressure test: Paw mechanical sensitivity was determined using a Randall & Selitto apparatus exerting a force that increases at constant rate (32 g/s). The stimulus at which rats withdrawn the paw was evaluated before and at different times after treatment. Results represent the mean of mechanical thresholds expressed as grams. To avoid any possible damage to the animal paw the maximum applied force was fixed at 240 g.
Statistical analysis: All experimental results are given as the mean±S.E.M. An analysis of variance, ANOVA, followed by Fisher's protected least significant difference procedure for post hoc comparison, were used to verify significance between two means of behavioral results. Data were analyzed with the StatView software for the Macintosh (1992). P values≦0.05 were considered significant.

Consider `NCC1(CC(=O)O)CCCCC1` [GABAPENTIN, Gabapentin, reference compound], for which the “Reversal of ddC-induced neuropathy (mechanical threshold, von Frey)” value in test [1] is listed as “not”. Moreover, the “Reduction of mechanical hyperalgesia over three weeks of treatment (in words)” value in test [2] (100 mg/kg p.o. once daily, 5 days/week for 3 weeks) is given as “much lower effect only at the end of the third week”. Further, in test [2] (gabapentin 100 mg/kg p.o.), the “Pharmacodynamic profile at the end of the third week” value was “sporadic, intermediate efficacy at 30 min”. In test [2] (oxaliplatin i.p. group), the “Paw pressure, pre-test before all treatments” value was 61.1 ± 4.0 g. In test [2] (oxaliplatin i.p.), the “Paw pressure, 1a week - 30 min” value turned out to be 47.8 ± 5.6 g; the “Paw pressure, 2a week - 30 min” value was determined as 49.0 ± 5.5 g; the “Paw pressure, 3a week - 30 min” value came out at 59.5 ± 5.5 g; the “Paw pressure, 3a week - 4 h” value worked out at 55.6 ± 4.2 g. For the same molecule, in test [2] (oxaliplatin i.p.), the “Paw pressure, 3a week - 8 h” value worked out at 43.8 ± 6.1 g and the “Paw pressure, 3a week - 24 h” value was 42.2 ± 5.5 g. For the same molecule, the “Paw pressure, pre-test before all treatments” value in test [2] (vehicle i.p. (no oxaliplatin) group) amounted to 62.7 ± 3.9 g. In addition, in test [2] (vehicle i.p. (no oxaliplatin)), the “Paw pressure, 1a week - 30 min” value came out at 65.6 ± 4.9 g; the “Paw pressure, 2a week - 30 min” value is 73.7 ± 5.2 g; the “Paw pressure, 3a week - 30 min” value stood at 82.3 ± 5.2 g; the “Paw pressure, 3a week - 4 h” value was 76.2 ± 4.8 g. Also, in test [2] (vehicle i.p. (no oxaliplatin)), the “Paw pressure, 3a week - 8 h” value is given as 78.2 ± 5.6 g and the “Paw pressure, 3a week - 24 h” value was 68.7 ± 5.9 g.
